Key:
[1] = test system: HSF1 regulated transcripts; assay: HSF1 regulated transcripts in C4-2 cells; format: cell-based, human; details: FIG. 4C
[2] = test system: C4/2 scramble and HSF1-knockdown cell lines; assay: C4/2 scramble vs HSF1-knockdown cell line; format: cell-based, human
Protocol: GAPDH was used as a loading control. […] Hsp70 is a gene activated by HSF1 and STAT6 is a gene repressed by HSF1. […] Shown is the solvent (DMSO) or two concentrations of Compound 0017 at 2.5 and 5 μM. ns=not significant; *=P<0.05; **=P<0.01 in accordance with one embodiment of the present disclosure.

CCRF-CEM = assay: NCI60 cell growth and viability: CCRF-CEM; format: cell-based; details: Leukemia, two days
MOLT-4 = assay: NCI60 cell growth and viability: MOLT-4; format: cell-based; details: MOLT-4, Leukemia, two days
A549/ATCC = assay: NCI60 cell growth and viability: A549/ATCC; format: cell-based; details: Non-Small Cell Lung Cancer, two days
HOP-92 = assay: NCI60 cell growth and viability: HOP-92; format: cell-based; details: HOP-92, Non-Small Cell Lung Cancer, two days
NCI-H226 = format: cell-based; details: NCI-H226, Non-Small Cell Lung Cancer, two days
NCI-H23 = format: cell-based; details: NCI-H23, Non-Small Cell Lung Cancer, two days
HCT-15 = assay: NCI60 cell growth and viability: HCT-15; format: cell-based; details: HCT-15, Colon Cancer, two days
SF-268 = assay: NCI60 cell growth and viability: SF-268; format: cell-based; details: SF-268, CNS Cancer, two days
SNB-19 = assay: NCI60 cell growth and viability: SNB-19; format: cell-based; details: SNB-19, CNS Cancer, two days
M14 = assay: NCI60 cell growth and viability: M14; format: cell-based; details: M14, Melanoma, two days
MDA-MB-435 = assay: NCI60 cell growth and viability: MDA-MB-435; format: cell-based; details: MDA-MB-435, Melanoma, two days
SK-MEL-28 = assay: NCI60 cell growth and viability: SK-MEL-28; format: cell-based; details: SK-MEL-28, Melanoma, two days
UACC-62 = assay: NCI60 cell growth and viability: UACC-62; format: cell-based; details: UACC-62, Melanoma, two days
IGROV1 = assay: NCI60 cell growth and viability: IGROV1; format: cell-based; details: IGROV1, Ovarian Cancer, two days
OVCAR-4 = assay: NCI60 cell growth and viability: OVCAR-4; format: cell-based; details: OVCAR-4, Ovarian Cancer, two days
OVCAR-5 = assay: NCI60 cell growth and viability: OVCAR-5; format: cell-based; details: OVCAR-5, Ovarian Cancer, two days
SK-OV-3 = assay: NCI60 cell growth and viability: SK-OV-3; format: cell-based; details: SK-OV-3, Ovarian Cancer, two days
ACHN = assay: NCI60 cell growth and viability: ACHN; format: cell-based; details: Renal Cancer, two days
UO-31 = assay: NCI60 cell growth and viability: UO-31; format: cell-based; details: UO-31, Renal Cancer, two days
BT-549 = assay: NCI60 cell growth and viability: BT-549; format: cell-based; details: BT-549, Breast Cancer, two days
[3] = Homo sapiens, 48 h, read-out: log10 [GI50 (M)] (converted)
[4] = Homo sapiens, 48 h, read-out: log10 [LC50 (M)] (converted)

## O=C(Nc1ccc(F)cc1)Nc1ccc(Cl)c([N+](=O)[O-])c1 [Compound 0017, 1-(4-chloro-3-nitrophenyl)-3-(4-fluorophenyl)urea]
[1]
  HSF1 negatively regulated transcripts: de-repressed
  expression of HSF1 positively regulated transcripts: dose-dependently repressed
[2]; 2.5 and 5 μM, FIG. 5C
  cell viability, HSF1-expressing vs HSF1-knockdown C4/2 cells: preferentially reduces cell viability
[2]; 48-hour treatment, in C4/2 scramble cell line, but not in HSF1-knockdown cell line, FIG. 5B
  Hsp70 and STAT6 expression: inhibition of Hsp70 expression and de-repression of STAT6
CCRF-CEM; [3]
  GI50: 3.31e-06 M
CCRF-CEM; [4]
  CC50: ≥ 0.0001 M
CCRF-CEM
  log10 [TGI (M)]: −4.00 log10 M
MOLT-4; [3]
  GI50: 3.16e-06 M
MOLT-4; [4]
  CC50: ≥ 0.0001 M
MOLT-4
  log10 [TGI (M)]: −4.03 log10 M
A549/ATCC; [3]
  GI50: 3.09e-06 M
A549/ATCC; [4]
  CC50: ≥ 0.0001 M
A549/ATCC
  log10 [TGI (M)]: −4.79 log10 M
HOP-92
  log10 [TGI (M)]: −5.21 log10 M
HOP-92; [3]
  GI50: 2.04e-06 M
HOP-92; [4]
  CC50: 2.69e-05 M
NCI-H226; [3]
  GI50: 2.29e-06 M
NCI-H226; [4]
  LC50: 3.63e-05 M
NCI-H226
  log10 [TGI (M)]: −5.03 log10 M
NCI-H23; [3]
  GI50: 2.63e-06 M
NCI-H23; [4]
  CC50: 4.57e-05 M
NCI-H23
  log10 [TGI (M)]: −4.97 log10 M
HCT-15
  log10 [TGI (M)]: −4.92 log10 M
HCT-15; [3]
  GI50: 2.95e-06 M
HCT-15; [4]
  CC50: 3.72e-05 M
SF-268; [3]
  GI50: 4.47e-06 M
SF-268; [4]
  CC50: 5.75e-05 M
SF-268
  log10 [TGI (M)]: −4.76 log10 M
SNB-19; [3]
  GI50: 3.55e-06 M
SNB-19; [4]
  CC50: 4.68e-05 M
SNB-19
  log10 [TGI (M)]: −4.84 log10 M
M14; [3]
  GI50: 3.16e-06 M
M14; [4]
  CC50: 3.8e-05 M
M14
  log10 [TGI (M)]: −4.91 log10 M
MDA-MB-435; [3]
  GI50: 3.09e-06 M
MDA-MB-435; [4]
  CC50: 4.37e-05 M
MDA-MB-435
  log10 [TGI (M)]: −4.94 log10 M
SK-MEL-28; [3]
  GI50: 3.8e-06 M
SK-MEL-28; [4]
  CC50: 3.8e-05 M
SK-MEL-28
  log10 [TGI (M)]: −4.85 log10 M
UACC-62; [3]
  GI50: 3.02e-06 M
UACC-62; [4]
  CC50: 3.63e-05 M
UACC-62
  log10 [TGI (M)]: −4.88 log10 M
IGROV1; Homo sapiens, IGROV-1, 48 h, read-out: log10 [GI50 (M)] (converted)
  GI50: 4.79e-06 M
IGROV1; Homo sapiens, IGROV-1, 48 h, read-out: log10 [LC50 (M)] (converted)
  CC50: 7.41e-05 M
IGROV1
  log10 [TGI (M)]: −4.73 log10 M
OVCAR-4; [3]
  GI50: 2.75e-06 M
OVCAR-4; [4]
  CC50: 8.71e-05 M
OVCAR-4
  log10 [TGI (M)]: −4.85 log10 M
OVCAR-5; [3]
  GI50: 3.55e-06 M
OVCAR-5; [4]
  CC50: 6.46e-05 M
OVCAR-5
  log10 [TGI (M)]: −4.83 log10 M
SK-OV-3; [3]
  GI50: 2.63e-06 M
SK-OV-3; [4]
  CC50: 4.27e-05 M
SK-OV-3
  log10 [TGI (M)]: −5.12 log10 M
ACHN; [3]
  GI50: 2.95e-06 M
ACHN; [4]
  CC50: 6.03e-05 M
ACHN
  log10 [TGI (M)]: −4.96 log10 M
UO-31; [3]
  GI50: 2.69e-06 M
UO-31; [4]
  CC50: 3.47e-05 M
UO-31
  log10 [TGI (M)]: −4.97 log10 M
BT-549
  log10 [TGI (M)]: −4.97 log10 M
BT-549; [3]
  GI50: 2.88e-06 M
BT-549; [4]
  CC50: 3.31e-05 M
